Test results as given in patent publication US20230107216A1, “PANTETHEINE DERIVATIVES AND USES THEREOF” (Comet Therapeutics, Inc., priority 2018, published 2023).

How the values were obtained:
[1] = system: Vitamin B12 deficiency (Cbl−/− diet) mouse model; experiment: Vitamin B12 deficiency mouse model: bone marrow immunophenotyping (M1/M2 macrophages); assay type: in vivo, C57BL/6 mice; settings: 50 mpk IP BID; for Ratio of M1/M2 macrophages in bone marrow: mice on the cbl−/− diet (untreated: M1/M2 ratio of 6); for Ratio of M1/M2 macrophages compared with mice on a control diet: mice on the cbl−/− diet
Description: (§1) A vitamin B12 deficiency mouse model was used following the methods described at Ghosh et al 2016.
(§2) Animal maintenance and feeding. Female weanling C57BL/6 mice (n=65) were obtained at 3 weeks of age from Shanghai Sippe-Bk Lab Animal Co., Ltd. The mice were housed in a SPF environment and maintained at 20° C.±6, under standard lighting conditions (12-h light/dark cycle). Animals were divided into 5 animals per cage during modelling, and 3 animals per cage during compound test. The 3-week old mice were fed ad libitum with either AIN-76A control diet (D10001i) designated as control diet group or the same diet deficient in vitamin B12 (D07012902) with pectin as the source of fiber (designated as Cbl−/− cobalamin deficient) referred to as B12R+ by Ghosh et al. (Research Diets Inc., New Brunswick, N.J., USA). Cobalamin-restricted diet with pectin (B12R+) contained 50 g pectin/kg diet, because it has been shown earlier that pectin binds the intrinsic factor in the intestine and makes vitamin B12 less bioavailable. The control diet contained 50 g cellulose/kg diet as the fiber source instead of pectin. The mice also had ad libitum access to deionized water. Food intake and body weights were recorded every week.
Compound treatment. After 6 weeks of feeding on either control or Cbl−/− diet, 9-week-old mice on Cbl−/− diet were randomly assigned into 5 groups with 3 mice per group per treatment. Mice in each group were IP treated with vehicle (1% HPBCD, Sigma, H107) or were dosed at 50 mpk with Compound 1 or Compound 410 BID. One group of mice were sacrificed at 24h after the first dose. 2nd group of mice were sacrificed at 72h after the first dose. 3rd group of mice were sacrificed after 168h (i.e 7 days) after the first dose. 4th group of mice were fasted for 12h before sacrificing after 72h of the first dose. 5th group of mice were first fasted for 12h before any vehicle or compound treatment and sacrificed after 72h after the first dose.
Tissue and sample collection. At above specified timepoints, mice were weighed and anesthetized with CO2 before sample collection. For blood collection, the chest was opened to expose the heart. Up to 300 μl blood was drawn from the left ventricle with 1 ml syringe rinsed with EDTA-Na and dispensed into a K3EDTA mini collect tube (Greiner Bio-One) for haematology analysis. Then a new syringe was used to draw remaining blood from heart as much as possible. Serum was isolated by centrifugation at 5000 rpm for 10 min, aliquoted and kept at −80° C. until further use. For tissue collection after blood was drawn, mice were perfused with ice cold saline from the left ventricle. Heart, liver, kidney, spleen, brain was weighed after isolation. Then left leg was kept in ice cold PBS and bone marrow was isolated for further immunophenotype analysis. […]

[2] = system: Vitamin B12 deficiency (Cbl−/− diet) mouse model; experiment: Vitamin B12 deficiency mouse model: liver protein determination (ELISA, TNFα, protein carbonyls); assay type: in vivo, C57BL/6 mice
Description: as §1, §2
Compound treatment. After 6 weeks of feeding on either control or Cbl−/− diet, 9-week-old mice on Cbl−/− diet were randomly assigned into 5 groups with 3 mice per group per treatment. […]

[3] = system: Vitamin B12 deficiency (Cbl−/− diet) mouse model; experiment: Vitamin B12 deficiency mouse model: muscle strength by grip test; assay type: in vivo, mice; settings: after 17 days of 50 mpk QD, IP
Description: Mice at 18 weeks of age were either fed on control diet (n=12 mice) or cbl−/− diet (n=30 mice) for 15 weeks. Grip strength test was measured by using a Grip Strength test meter for mice and rats (Jiangsu, SANS Biological Technology, CO. LTD, SA417) and recorded as day zero grip strength analysis. Briefly, machine was turned on (push peak) and calibrated to zero. Front leg strength was measured by pulling the mice away from the bar by holding the tail of the mice. Total 5 values were measured for each mouse. After the measurement the cbl−/− mice were divided into three groups of N=10 mice per group. Each group received either vehicle (0.1% saline) or Compound 410 or Compound 500, IP at the dose of 50 mpk QD. […]

Row | Compound | Ratio of M1/M2 macrophages in bone marrow [1] | Ratio of M1/M2 macrophages compared with mice on a control diet [1] | Protein Carbonyl in liver homogenates ([2]; mice on the cbl−/− diet (untreated 25.4 pg/ug; control diet 16.6 pg/ug)) | TNF-α in liver homogenates ([2]; mice on the cbl−/− diet (untreated 171.8 pg/ug; control diet 121.46 pg/ug)) | Grip strength ([3]; mice on the cbl−/− diet (36.5 g; control diet 59 g)) | Recovery of grip strength ([3]; mice on the cbl−/− diet)
1 | COC(=O)CC(C(C)=O)C(=O)SCCNC(=O)CCNC(=O)[C@H](O)C(C)(C)CO (some centres unmarked) [Compound 410] | 3.87 | statistically indistinguishable | 11.1 pg/µg | 62 pg/µg | 57.7 g | recovered grip strength to near the level of mice on the control diet
2 | CC(C)(CO)[C@@H](O)C(=O)NCCC(=O)NCCSC(=O)CCC(=O)O [Compound 1, (R)-4-((2-(3-(2,4-dihydroxy-3,3-dimethylbutanamido)propanamido)ethyl)thio)-4-oxobutanoic acid] | 3.967 | statistically indistinguishable | – | – | – | –
